These are literature values, as cited in patent US20250262182A1, “Beverage Composition and Process” (priority 2020, published 2025).

Like-named read-outs stand apart in the source and are kept apart here.

With `NC(=O)NCCC[C@H](N)C(=O)O` [L-citrulline], the Adverse effects result runs as follows: (dosages in the range of 6 g to 10 g) “mild gastrointestinal upset”; (dosages in the range of 10 g to 15 g) “stomach discomfort, bloating, or diarrhea”; (dosages over 20 g) “electrolyte imbalance and/or headaches”. The Tolerability result (dosages up to 6 g, most people) is listed as “generally well tolerated”.
